The text below walks through data of patent US8513226B2, “Simultaneous method for the preparation of a mixture of 3-acetoxy-17-acetamido-16-formyl-androst-5,17-diene and 3-acetoxy-2'-chloro-5-androsteno[17,16-b]pyridine” (Council of Scientific and Industrial Research, priority 2008, dated 2013).

Data set [1] deals with rabbit gastric parietal cells. Description: Basal acid secretion (aminopyrine uptake) in gastric parietal cells. It is filed as cell-based. Conditions: Oryctolagus cuniculus.
Procedure: (§1) Briefly, the technique involves high-pressure perfusion of the stomach in live animal with oxygenated PBS, stripping and mincing the mucosa followed by 2-step proteolytic digestion at 37° C., first with a mixture of protease (0.1 mg/ml) and pronase (1 mg/ml) for 15 min and then the pellet obtained therefrom with collagenase (1 mg/ml) for 30 min. The washed cell pellet containing majority of the gastric cells was layered on top of a two-step gradient of Nycodenz (density 1.05 and 1.075 g/ml) and centrifuged at 150×g for 10 min. Parietal cells enriching in between density of 1.05 and 1.075 interface were collected, washed 3 times with respiratory medium and used for the study. The PC preparations were nearly 90% pure and viable.
(§2) The [^14C]-aminopyrine (115 μCi/mM) was added to the suspension at a concentration of 0.1 mCi/ml, and incubation was continued for another 10 min. One-milliliter aliquots of such PC suspension (˜5×10^6 cells) were further incubated in the presence and the absence of histamine (0.1 mM) for 20 min at 37° C. with slow shaking and oxygen top gassing. At the end of the incubation, the PC suspensions were centrifuged, supernatant carefully aspired off and the pellets solubilized in scintillation fluid containing Triton X-100. The resulting solution was counted in a liquid scintillation counter. The aminopyrine accumulation was determined as the ratio of intra- to extracellular aminopyrine according to Mazzeo et al. (A R Mazzeo, J Nandi & R A Levine, Am. J. Physiol. 1988, 254, G57).
The target of another data set is H^+,K^+-ATPase (Sus scrofa, UniProt P19156). The data set can be described thus: H+,K+-ATPase (gastric proton pump) inhibition in pig gastric membranes. It is filed as biochemical. Conditions: for IC50: read-out: calculated IC50, H^+,K^+-ATPase. The method, then: Pig gastric membranes enriched in apical and tubulovesicular membranes were prepared as described in the literature (S Bandopadhyay, P K Das, M V Wright, J Nandi, D Bhattacharya & T K Ray, J. Biol. Chem. 1987, 262, 5664). The fundic mucosal regions of pig stomach were desquamated and scrapped to collect oxyntic cell-riched fractions. The homogenized tissue was centrifuged at 5000×g for 8 min, the supernatant was layered over 37% sucrose and centrifuged at 100,000×g for 4½ h. The major membrane band appeared in the interface was collected, diluted with homogenizing buffer and recentrifuged at 110,000×g for 90 min. The pellet containing H^+,K^+-ATPase rich apical and tubulovesicular membranes was suspended in appropriate buffer and stored at −80° C. for use as the source of enzyme.
The H^+,K^+-ATPase activity was measured at 37° C. in a 1 ml reaction mixture containing 2 mM MgCl2, 2 mM ATP, 10 mM PIPES (pH 6.8), 20 mM KCl and 10-15 μg membrane protein. […] After incubation for 10 min, the reaction was terminated by addition of 1 ml ice-chilled TCA (14%).
K^+-stimulated activity, referred to as H^+,K^+-ATPase, was calculated as the difference between the activity in presence of Mg^+2 plus K^+ and basal activity (Mg^+-ATPase) in presence of Mg^+2 alone. […] The liberated inorganic phosphate was quantitated according to a reported procedure (H Sanui, Anal. Biochem. 1974, 60, 489) and the effects of 4 and 5 were assessed. The effects are quantitated in terms of percent inhibition of H^+,K^+-ATPase activity, and compared with that of omeprazole.

In data set [2] the test system is indomethacin-induced ulcer in rat. The data set can be described thus: Indomethacin-induced ulcer in rat. To be noted: for protection of indomethacin induced ulcer formation: p.o. 45 min before indomethacin 15 mg/kg p.o. It is filed as in vivo.
Procedure: The animals were kept fasting for 24 h before initiating the experiment, drinking water being available ad libitum. The animals were allotted to three groups, each group comprising of six rats. […] Six hours following the administration of indomethacin, the animals were killed, stomachs removed and opened along the greater curvature.
Data set [3] has as its system cold restraint stress ulcer in rats. Description: Cold restraint stress induced ulceration. It is filed as in vivo, rat. To be noted: for protection of ulceration induced by cold restraint stress: 50 mg/kg body weight. The method, then: Adult rats of either sex, weighing about 200 g were fasted for 24 h with free access to water. Compound 4 (in 0.4% hydroxypropylmethylcellulose, HPMC) were administered 45 min before immobilizing the animals. The rats were immobilized in the restraint cage at 4 °C for 4 h and were sacrificed immediately after the restraint period according to the method of Senay and Levine (E C Senay & R J Levine, Proc. Soc. Exp. Biol. Med. 1967, 124, 1221). The abdomen was cut opened, stomach taken out and incised along the greater curvature to observe the gastric lesions. The ulceration was rated and the ulcer index (UI) scored as described in Wagner et al. (K Wagner, J Nandi, R L King & R A Levine, Dig. Dis. Sci. 1995, 40, 134), the effect of compound 4 being expressed graphically as a function of ulcer index and the result was further expressed as the percent protection of the ulcer formation in comparison to the untreated control group (FIG. 4).

The next data set has as its system pylorus-ligated rats. Description: Gastric secretion in pylorus-ligated rats. It is filed as in vivo, rat. On the procedure: The pylorus of each rat was ligated under anesthesia according to the method of Shay et. al. (H Shay, S A Komarov, S S Fels, D Merange, M Grunstein & H Siplet, Gastroenterol. 1945, 4, 43). Each of the animals were then allowed to stand abstained from food and water in a cage. After 4 h, the animals were sacrificed and the stomachs were removed. The gastric contents were collected and centrifuged, and the secretory volume, pH and acid content of the supernatants were measured. The acid content was measured by titrating to pH 7.0 with 0.01 N NaOH using an autotitrator (Metrohm). The total acid content of the drug treated groups was compared to that of control groups, presented graphically in FIG. 5 and thereby, the reduction percentage of acid content was calculated. Compound 4 was suspended in 0.4% HPMC and administered orally at graded dose (10, 20, 50 and 100 mg/kg dose) in different groups 45 min before the ligation. In the control group, the vehicle (0.4% HPMC) was administered.

Data set [4] relates to rabbit gastric parietal cells. Description: Histamine-stimulated acid secretion (aminopyrine uptake) in gastric parietal cells. Format: cell-based. Conditions: histamine 0.1 mM.
Procedure: as §1, §2
The subject of the next data set is Swiss albino mice. Description: Single-dose acute toxicity evaluation. It is filed as in vivo. To be noted: 1 g/kg body weight orally, 15 days observation. An excerpt:
The Compound 4 was checked for mortality of the Swiss albino mice. Five animals of Swiss albino mice strain were used for this purpose. The dosage up to 1 g/kg body weight was given orally per mice and the animals kept up to 15 days under observation. It was observed that the mice were not affected at the dose level of 1 g/kg body weight of Compound 4.

As usually defined, the inhibition is how much of the control response was suppressed. For orientation: IC50 means the concentration that inhibits the measured activity by half.

Entries after “also recorded” stand apart in the source; their conditions may differ. Where two headings read alike, the source gives them in different places.

Chain of H^+,K^+-ATPase (P19156 whole entry): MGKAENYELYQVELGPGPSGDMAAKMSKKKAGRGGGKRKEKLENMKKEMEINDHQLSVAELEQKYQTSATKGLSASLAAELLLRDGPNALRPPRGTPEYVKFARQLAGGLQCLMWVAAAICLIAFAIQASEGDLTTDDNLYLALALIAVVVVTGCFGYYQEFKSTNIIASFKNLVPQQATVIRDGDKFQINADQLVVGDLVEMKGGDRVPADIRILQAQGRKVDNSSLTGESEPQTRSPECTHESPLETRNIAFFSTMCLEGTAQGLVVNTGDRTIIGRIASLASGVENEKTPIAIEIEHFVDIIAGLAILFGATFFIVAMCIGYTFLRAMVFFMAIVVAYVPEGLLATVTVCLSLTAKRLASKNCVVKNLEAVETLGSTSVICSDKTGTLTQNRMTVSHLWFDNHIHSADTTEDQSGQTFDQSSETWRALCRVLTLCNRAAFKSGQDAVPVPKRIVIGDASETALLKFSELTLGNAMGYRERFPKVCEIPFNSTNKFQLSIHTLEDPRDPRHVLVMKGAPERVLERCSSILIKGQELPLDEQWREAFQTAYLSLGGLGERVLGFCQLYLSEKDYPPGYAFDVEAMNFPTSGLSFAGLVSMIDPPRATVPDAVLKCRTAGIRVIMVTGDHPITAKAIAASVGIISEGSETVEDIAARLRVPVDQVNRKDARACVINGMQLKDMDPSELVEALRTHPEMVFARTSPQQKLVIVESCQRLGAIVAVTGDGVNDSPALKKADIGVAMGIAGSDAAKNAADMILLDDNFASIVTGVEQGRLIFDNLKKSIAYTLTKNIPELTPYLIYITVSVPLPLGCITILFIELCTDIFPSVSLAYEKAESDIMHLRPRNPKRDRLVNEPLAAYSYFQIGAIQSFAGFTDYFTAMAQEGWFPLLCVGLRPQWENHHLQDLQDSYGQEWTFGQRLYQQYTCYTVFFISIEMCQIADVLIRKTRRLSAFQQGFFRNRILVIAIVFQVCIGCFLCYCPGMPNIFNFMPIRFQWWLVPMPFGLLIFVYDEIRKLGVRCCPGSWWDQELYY
Chain of H^+,K^+-ATPase (P18434 whole entry partner): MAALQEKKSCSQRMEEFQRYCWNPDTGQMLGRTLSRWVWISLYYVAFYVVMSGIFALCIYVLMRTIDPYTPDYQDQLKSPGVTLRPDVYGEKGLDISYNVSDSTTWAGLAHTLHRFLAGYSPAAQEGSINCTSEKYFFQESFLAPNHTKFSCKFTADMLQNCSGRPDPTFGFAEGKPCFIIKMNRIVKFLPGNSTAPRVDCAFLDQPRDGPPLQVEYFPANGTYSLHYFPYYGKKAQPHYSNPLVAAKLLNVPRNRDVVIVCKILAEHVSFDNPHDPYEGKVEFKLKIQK

With `COc1ccc2[nH]c([S+]([O-])Cc3ncc(C)c(OC)c3C)nc2c1` (stereo not shown) [Omeprazole, 5-methoxy-2-[(4-methoxy-3,5-dimethyl-2-pyridinyl)-methyl]sulfinyl-1H-benzimidazole, reference compound], the inhibition at 20 µM in data set [1] (20 μM) was in the range of 80 to 90%. The molecule further had an inhibition at 3 µM at H^+,K^+-ATPase (concentration 3 μM) of 20%. The molecule also registered an inhibition at 30 µM at H^+,K^+-ATPase (concentration 30 μM) of 80%. The “inhibition of H^+,K^+-ATPase” value against H^+,K^+-ATPase (concentration range 3 μM and 30 μM) is 20-80%. The “potency relative to 4 (H^+,K^+-ATPase)” value at H^+,K^+-ATPase (from IC50 values) is reported as “about three times more potent than 4”. Also, the IC50 at H^+,K^+-ATPase is around 6 µM. Besides, the “protection of indomethacin induced ulcer formation” value in data set [2] is around 90%.

The molecule `CN/C(=N/CCSCc1nc[nH]c1C)NC#N` [Cimetidine, reference compound] gave an inhibition at 200 µM in data set [1] (200 μM) of around 10%. For the same molecule, the “protection of ulceration induced by cold restraint stress” value in data set [3] worked out at 86%. The “inhibition of acid output” value with pylorus-ligated rats (50 mg/kg) is on record as around 80%.

`CC(=O)NC1=C(C=O)CC2C3CC=C4CC(OC(C)=O)CCC4(C)C3CCC12C` (stereo not shown) [Compound 4, 3-acetoxy-17-acetamido-16-formyl-androst-5,17-diene] gave an inhibition at 300 µM in data set [1] (300 μM (highest concentration)) of around 10%. Further, the “protection of ulceration induced by cold restraint stress” value in data set [3] is reported as 54%. Further, the “antiulcer activity in cold restraint stress ulcer model (in words)” value in data set [3] (50 mg/kg body wt.) is on record as “potent antiulcer activity”. Besides, the “inhibition of H^+,K^+-ATPase (in words)” value on H^+,K^+-ATPase is given as “dose dependent”. Also, the “nature of inhibition of H^+,K^+-ATPase” value at H^+,K^+-ATPase is on record as “irreversible”. Moreover, the “Observation (nature of inhibition)” value was “Irreversible” on H^+,K^+-ATPase (10 μM, different protein to inhibitor ratio) and “Irreversible” on H^+,K^+-ATPase (10 μM, function of preincubation time). The inhibition at 10 µM is 2% at H^+,K^+-ATPase (10 μM, preincubation time 0 min, read-out: % Inhibition of H^+, K^+-ATPase); 56% at H^+,K^+-ATPase (10 μM, preincubation time 30 min, read-out: % Inhibition of H^+, K^+-ATPase); 75% on H^+,K^+-ATPase (10 μM, protein concentration 5 μg/assay, read-out: % Inhibition of H^+, K^+-ATPase); 57% on H^+,K^+-ATPase (10 μM, protein concentration 20 μg/assay, read-out: % Inhibition of H^+, K^+-ATPase); 47% on H^+,K^+-ATPase (concentration 10 μM, read-out: % Inhibition H^+, K^+-ATPase). For the same molecule, at H^+,K^+-ATPase (concentration 1 μM), the inhibition at 1 µM was determined as 7%. The same molecule registered an inhibition at 5 µM against H^+,K^+-ATPase (concentration 5 μM) of 20%. In addition, on H^+,K^+-ATPase (concentration 100 μM), the inhibition at 100 µM came out at 75%. Besides, the IC50 on H^+,K^+-ATPase was 18 µM; in data set [4] (Oryctolagus cuniculus, read-out: IC50, inhibition of histamine-stimulated acid secretion), around 130 µM. Moreover, in data set [4], the “activity compared with cimetidine in inhibiting histamine-stimulated secretion” value is “IC50 value comparable to cimetidine; also recorded: almost equiactive as compared with cimetidine”. Also, the “anti ulcer activity in indomethacin-induced ulcer model (in words)” value in data set [2] (10-50 mg/kg b.w.) is reported as “potent anti ulcer activity”. The “protection of indomethacin induced ulcer formation” value in data set [2] is around 75%. In addition, the “mortality and behavioral abnormality, single-dose acute toxicity” value in the data set with Swiss albino mice is “No mortality and behavioral abnormality; also recorded: did not show acute toxicity”. The “inhibition of acid output” value with pylorus-ligated rats (50 mg/kg) is reported as around 33%; in the data set with pylorus-ligated rats (50-100 mg/kg, oral) it was around 30%.

On to `CC(=O)O[C@H]1CC[C@@]2(C)C(=CC[C@@H]3[C@@H]2CC[C@]2(C)c4nc(Cl)ccc4C[C@@H]32)C1` [Compound 5, 3-acetoxy-2′-chloro-5-androsteno[17,16-b]pyridine], for which, on H^+,K^+-ATPase, the “inhibition of H^+,K^+-ATPase (in words)” value was “nominal”. In addition, the “% Inhibition H^+, K^+-ATPase” value at H^+,K^+-ATPase (concentration 1 μM) came out at 2%; on H^+,K^+-ATPase (concentration 10 μM), 37%; at H^+,K^+-ATPase (concentration 100 μM) it was 57%.
